According to patent US5798365A, “Substituted quinoline derivatives, a process for their preparation, and their use” (Hoechst Aktiengesellschaft, priority 1994, dated 1998):
In brackets after ≈: the same amount, converted by molar mass. Read-outs that look alike come from different tables or passages of the source.

Key:
HIV = experiment: Testing preparations against HIV in cell culture (infected human donor lymphocytes); type: cell-based; settings: for MIC: Human immunodeficiency virus 1, 72 h, lowest concentration without giant cells; for IC50: Human immunodeficiency virus 1, Lymphocyte, 72 h
Experimental: Testing preparations against HIV in cell culture
Description of the method
The complete medium additionally contains 20% foetal calf serum and 40 IU/ml recombinant interleukin 2.
Lymphocytes which have been isolated from fresh donor blood by means of Ficoll® gradient centrifugation are cultured, at 37° C. for 36 h and under 5% CO2, in complete medium in the added presence of […] phytohemagglutinin (Wellcome). After the addition of 10% DMSO, the cells are frozen at a cell density of 5×10^6 and stored in liquid nitrogen. For the experiment, the cells are thawed, washed in RPMI medium and cultured for 3-4 days in complete medium.
The preparations for testing were dissolved in DMSO at a concentration of 16.7 mg/ml and diluted to 1 mg/ml in complete medium. 0.4 ml of medium was initially introduced in 24-well multiwell plates. After 0.1 ml of the dissolved preparation had been added to the upper row of the plate, a geometrical dilution series was produced by transferring 0.1 ml on each occasion. Preparation-free controls always contained 0.4 ml of complete medium containing 0.5% DMSO.
Lymphocyte cultures having a cell count of 5×10^5 cells/ml were infected by adding a 1/50 volume of the supernatant from lymphocyte cultures infected with HIV. The titer of these culture supernatants was determined, by end point dilution, to be 1-5×10^6 infectious units/ml. After incubating at 37° C. for 30 min, the infected lymphocytes were centrifuged off and taken up once again in the same volume of medium. 0.6 ml of this cell suspension was added to each of the wells in the test plate. The assay mixtures were incubated at 37° C. for 3 days.
The infected cell cultures were examined under the microscope for the presence of giant cells, which indicate that the virus is multiplying actively in the culture. The lowest preparation concentration at which no giant cells appeared was defined as the inhibitory concentration against HIV (MIC value). As a control, the presence of HIV antigen in the supernatants from the culture plates was determined using a test for HIV antigen in accordance with the manufacturer's (Organon) instructions.

[1] = biological target: T1, HIV reverse transcriptase (Human immunodeficiency virus type 1 group M subtype B, UniProt P04585); experiment: Inhibition of HIV reverse transcriptase, scintillation proximity assay (SPA); type: biochemical; settings: RT-SPA, 60 min, 37° C., read-out: Reverse Transcriptase Asaay IC-50 (converted)
T1 construct: purchased HT-Biotechnology LTD, Cambridge, UK; host or cells: E. coli
Experimental: Investigation of the ability of the substances to inhibit the HIV reverse transcriptase
The activity of the reverse transcriptase (RT) was measured by means of a scintillation proximity assay (SPA).
The reagent kit for the RT-SPA was obtained from Amersham/Buchler (Braunschweig). The RT enzyme (originating from HIV and cloned in E. coli) was provided by HT-Biotechnology LTD, Cambridge, UK.
The test was carried out in accordance with the supplier's (Amersham) methods manual--with the following modifications:
bovine serum albumin was added to the assay buffer to a final concentration of 0.5 mg/ml.
The test was carried out in Eppendorf reaction tubes using a mixture volume of […].
The supplier's RT concentrate (5000 U/ml) was diluted in 20 mM tris-HCl buffer; pH 7.2; 30% glycerol to an activity of 15 U/ml.
The assay mixtures were incubated for 60 min (at 37° C.).
After the reaction had been stopped and "developed" using the bead suspension, […] of assay mixture was transferred into 4.5 ml of 10 mM tris-HCl buffer; pH 7.4; 0.15M NaCl
and the tritium activity was measured in a β counter.
In order to carry out a preliminary test for inhibitor activity, the substances were dissolved in DMSO (stock solution concentration=1 mg/ml) and tested at 10^-1, 10^-2, 10^-3, etc. dilutions in DMSO.
In order to determine the IC50 values, the stock solutions of inhibitor were further diluted in 50 mM tris-HCl buffer, pH 8, and tested at suitable concentrations.
The concentration giving rise to 50% inhibition of the enzyme was ascertained from the graphic depiction of RT activity versus log Cinh.

[2] = HIV-infected lymphocytes, 3 days, 37° C.
[3] = HIV-infected lymphocytes, 3 days, 37° C., read-out: IC-50

SMILES	MIC (HIV; [2]) [mg/L]	IC50 (HIV; [3]) [mg/L]	IC50 [1] [µM]	IC50 ([1]; molar value in parentheses) [µM]	also measured
CC1(C)C(=S)Nc2ccc(F)cc2C1=C1CCCC1 [Compound 143]	> 0.008	< 0.008	–	–	–
CCOc1ccc2c(c1)C(=CCC(C)C)C(C)(C)C(=O)N2 [Compound 58]	< 0.1	–	–	–	IC50 (HIV; HIV-infected lymphocytes, 3 days, unit as printed for compound 58, read-out: IC-50): ~0.02 mg/L (≈ 0.0696 µM)
C=CC=C1c2cc(OC)ccc2NC(=S)C1(C)C [Compound 68]	–	–	~0.0386	–	–
CCC=C1c2ccccc2NC(=S)C1(CC)CC [Compound 51]	0.02 (≈ 0.0771 µM)	~0.002 (≈ 0.00771 µM)	0.0231	0.023	–
CCC1(CC)C(=O)Nc2ccccc2C1=CCC(C)C [Compound 52]	0.02 (≈ 0.0737 µM)	~0.004 (≈ 0.0147 µM)	0.0442	0.043	–
CCOC(=O)/C=C1\c2cc(Cl)ccc2NC(=S)C1(C)C [Compound 142]	< 0.2	0.004 (≈ 0.0129 µM)	0.123	–	–
CCOc1ccc2c(c1)C(=CC(C)C)C(C)(C)C(=S)N2 [Compound 47]	< 0.08	~0.015 (≈ 0.0518 µM)	–	–	–
CCC1(CC)C(=S)Nc2ccccc2C1=CCC(C)C [Compound 53]	0.02 (≈ 0.0696 µM)	~0.002 (≈ 0.00696 µM)	0.0452	0.044	–
C=CC=C1c2cc(Cl)ccc2NC(=O)C1(C)C [Compound 13]	> 0.2	0.04 (≈ 0.161 µM)	–	–	–
CCCC=C1c2ccccc2NC(=O)C12CCC2 [Compound 5]	0.2 (≈ 0.829 µM)	0.04 (≈ 0.166 µM)	0.479	0.479	–
CC(C)CC=C1c2ccccc2NC(=S)C12CCCC2 [Compound 70]	0.02 (≈ 0.0701 µM)	~0.003 (≈ 0.0105 µM)	0.021	0.021	–
CCCC=C1c2ccccc2NC(=S)C1(CC)CC [Compound 49]	< 0.02	~0.002 (≈ 0.00731 µM)	0.0256	0.024	–
COc1ccc2c(c1)C(=C1CCCC1)C(C)(C)C(=O)N2 [Compound 138]	> 0.2	0.03 (≈ 0.111 µM)	0.225	–	–
COc1ccc2c(c1)C(=CCC(C)C)C(C)(C)C(=O)N2 [Compound 66]	< 0.1	–	0.0695	0.07	IC50 (HIV; HIV-infected lymphocytes, 3 days, unit as printed for compound 66, read-out: IC-50): ~0.01 mg/L (≈ 0.0366 µM)
CCC=C1c2cc(Cl)ccc2NC(=O)C1(C)C [Compound 3]	< 0.08	0.03 (≈ 0.12 µM)	0.108	–	–
CCC/C=C1\c2cc(Cl)ccc2NC(=O)C1(C)C [Compound 73, E-4-n-butylene-6-chloro-3,4-dihydro-3,3-dimethylquinolin-2(1H)-one]	< 0.04	0.02 (≈ 0.0758 µM)	0.0303	0.03	–
CCCC=C1c2ccccc2NC(=S)C1(C)C [Compound 28]	0.008 (≈ 0.0326 µM)	~0.01 (≈ 0.0408 µM)	0.0236	0.024	–
CCCCCC=C1c2cc(OC)ccc2NC(=S)C1(C)C [Compound 64]	–	–	0.109	0.109	–
CC=C1c2ccccc2NC(=S)C12CCCC2 [Compound 38]	< 0.2	~0.08 (≈ 0.329 µM)	–	–	–
CCCC=C1c2cc(OCC)ccc2NC(=S)C1(C)C [Compound 55]	< 0.08	~0.006 (≈ 0.0207 µM)	0.0311	0.031	–

SMILES	MIC (HIV; [2]) [mg/L]	IC50 (HIV; [3]) [mg/L]	IC50 [1] [µM]	IC50 ([1]; molar value in parentheses) [µM]	also measured
CC(C)C=C1c2cc(Cl)ccc2NC(=O)C1(C)C [Compound 17]	< 0.02	~0.04 (≈ 0.152 µM)	–	–	–
COc1ccc2c(c1)C(=CCC(C)C)C(C)(C)C(=S)N2 [Compound 69]	< 0.02	–	0.0173	0.018	IC50 (HIV): ~0.0018 mg/L (≈ 0.00622 µM)
CCCC=C1c2ccccc2NC(=S)C12CCC2 [Compound 7]	< 0.008	~0.00032 (≈ 0.00124 µM)	0.0194	0.018	–
CCCC=C1c2cc(OC(F)(F)F)ccc2NC(=S)C1(C)C [Compound 36]	< 0.2	~0.01 (≈ 0.0304 µM)	–	–	–
CCC=C1c2cc(Cl)ccc2NC(=O)C12CCCC2 [Compound 77]	0.2 (≈ 0.725 µM)	~0.03 (≈ 0.109 µM)	–	–	–
CC(C)C=C1c2ccccc2NC(=S)C1(C)C [Compound 24]	–	–	0.27	0.27	–
CCCC=C1c2cc(OC)ccc2NC(=O)C1(C)C [Compound 41, E/Z-4-n-butylene-3,4-dihydro-3,3-dimethyl-6-methoxyquinolin-2(1H)-one]	0.2 (≈ 0.771 µM)	~0.2 (≈ 0.771 µM)	–	–	–
CCCC=C1c2ccccc2NC(=O)C12CCCC2 [Compound 6, E/Z-4-n-butylene-3,3-cyclopentylidene-3,4-dihydroquinolin-2(1H)-one]	–	–	0.113	0.113	–
CCC=C1c2cc(OC)ccc2NC(=O)C1(C)C [Compound 44]	0.2 (≈ 0.815 µM)	0.06 (≈ 0.245 µM)	–	–	–
CCC/C=C1/c2cc(Cl)ccc2NC(=O)C1(C)C [Compound 74, Z-4-n-butylene-6-chloro-3,4-dihydro-3,3-dimethylquinolin-2(1H)-one]	0.04 (≈ 0.152 µM)	–	–	–	IC50 (HIV; HIV-infected lymphocytes, 3 days, unit as printed for compound 74, read-out: IC-50): 0.02 mg/L (≈ 0.0758 µM)
CC/C=C1/c2cc(Cl)ccc2NC(=S)C1(C)C [Compound 72]	< 0.008	–	–	–	–
CC(C)C=C1c2ccccc2NC(=S)C12CCC2 [Compound 34]	< 0.04	~0.01 (≈ 0.0388 µM)	–	–	–
CCCCCC=C1c2cc(Cl)ccc2NC(=S)C1(C)C [Compound 16]	< 0.2	~0.03 (≈ 0.0974 µM)	–	–	–
C=C1c2cc(Cl)ccc2NC(=S)C1(C)C [Compound 1]	1 (≈ 4.21 µM)	≥ 0.04	–	–	–
CCCC=C1c2cc(OCC)ccc2NC(=O)C1(C)C [Compound 54]	0.1 (≈ 0.366 µM)	0.05 (≈ 0.183 µM)	–	–	–
C=CC=C1c2ccccc2NC(=S)C1(C)C [Compound 30]	< 0.2	~0.02 (≈ 0.0872 µM)	–	–	–
CCCCCC=C1c2ccccc2NC(=S)C12CCC2 [Compound 32]	0.2 (≈ 0.701 µM)	~0.08 (≈ 0.28 µM)	–	–	–
CCC=C1c2ccccc2NC(=O)C1(CC)CC [Compound 50]	< 0.1	~0.01 (≈ 0.0411 µM)	–	–	–
COc1ccc2c(c1)C(=CC(C)C)C(C)(C)C(=O)N2 [Compound 43]	0.2 (≈ 0.771 µM)	0.05 (≈ 0.193 µM)	–	–	–
